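1) Cells in 96-well plates. 2) Compound, 48 h, 5 concentrations. 3) Linear interpolation between surrounding doses. 4) Unreached endpoint = highest concentration. Definition used: TGI = concentration required for complete inhibition of growth.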
Tests used:
Experiment in all cases: DTP human tumour cell line panel, 48 h
SW-620 colon = test system: SW-620 colon
HOP-92 NSCLC = test system: HOP-92 NSCLC
OVCAR-8 ovarian = test system: OVCAR-8 ovarian
LOX IMVI melanoma = test system: LOX IMVI melanoma
DU-145 prostate = test system: DU-145 prostate
HT29 colon = test system: HT29 colon
OVCAR-3 ovarian = test system: OVCAR-3 ovarian
OVCAR-4 ovarian = test system: OVCAR-4 ovarian
SK-MEL-5 melanoma = test system: SK-MEL-5 melanoma
NCI/ADR-RES ovarian = test system: NCI/ADR-RES ovarian
SK-OV-3 ovarian = test system: SK-OV-3 ovarian
CCRF-CEM leukemia = test system: CCRF-CEM leukemia
NCI-H226 lung = test system: NCI-H226 lung
MDA-MB-435 = test system: MDA-MB-435
SK-MEL-28 melanoma = test system: SK-MEL-28 melanoma
SNB-75 CNS = test system: SNB-75 CNS
T-47D breast = test system: T-47D breast
SNB-19 CNS = test system: SNB-19 CNS
SN12C renal = test system: SN12C renal
MOLT-4 leukemia = test system: MOLT-4 leukemia
SR leukemia = test system: SR leukemia
IGROV1 ovarian = test system: IGROV1 ovarian
TK-10 renal = test system: TK-10 renal
NCI-H522 lung = test system: NCI-H522 lung
A498 renal = test system: A498 renal
SF-539 CNS = test system: SF-539 CNS
PC-3 prostate = test system: PC-3 prostate
SF-268 CNS = test system: SF-268 CNS
HCT-116 colon = test system: HCT-116 colon
KM12 colon = test system: KM12 colon
MALME-3M melanoma = test system: MALME-3M melanoma
ACHN renal = test system: ACHN renal
SK-MEL-2 melanoma = test system: SK-MEL-2 melanoma
MDA-N = test system: MDA-N
U251 CNS = test system: U251 CNS
MCF7 breast = test system: MCF7 breast
786-0 renal = test system: 786-0 renal
UACC-257 melanoma = test system: UACC-257 melanoma
HCC-2998 colon = test system: HCC-2998 colon
UO-31 renal = test system: UO-31 renal
HOP-62 NSCLC = test system: HOP-62 NSCLC
COLO 205 colon = test system: COLO 205 colon
UACC-62 melanoma = test system: UACC-62 melanoma
HL-60(TB) leukemia = test system: HL-60(TB) leukemia
SF-295 CNS = test system: SF-295 CNS
HCT-15 colon = test system: HCT-15 colon
MDA-MB-231 breast = test system: MDA-MB-231 breast
NCI-H23 lung = test system: NCI-H23 lung
M14 melanoma = test system: M14 melanoma
RXF 393 renal = test system: RXF 393 renal
A549 NSCLC = test system: A549 NSCLC
NCI-H460 lung = test system: NCI-H460 lung
K-562 leukemia = test system: K-562 leukemia

Measured: TGI

CC(=O)OCC1OC(n2c(C)c(C(C)=O)c(-c3ccc(Cl)cc3)c(C#N)c2=S)C(OC(C)=O)C(OC(C)=O)C1OC(C)=O (stereo not drawn)
> 100 µM: all assays above

From PubChem BioAssay (NCI)
